Data as given in article PMC9589981, “High-Resolution Epitope Mapping and Affinity Binding Analysis Comparing a New Anti-Human LAG3 Rabbit Antibody Clone to the Commonly Used Mouse 17B4 Clone” (Antibodies, 2022).

Tested on: mouse 17B4 antibody (binding to LAG3 from HH cell lysate)
Assay: ACE (automated capillary electrophoresis) peptide inhibition assay, 17B4
Conditions: result in words, peptide at 5000 nM and 500 nM
Description: For each assay run, HH cell lysate was mixed with 0.1× WES sample buffer reagent, and reconstituted WES 5× Fluorescent Mix reagent followed by denaturation at 95 °C for 3 min and then held on ice followed until use. Denatured sample was added to each of the designated wells of the separation module sampling plate. Dilutions of the stock rabbit SP464 and mouse 17B4 monoclonal antibodies were made to the desired concentrations using the WES detection module Antibody Dilution Buffer 2 reagent. Diluted antibody solutions were added to the designated wells of the separation module sampling plate. The remaining WES assay reagents were finally added to the plate and then processed in the WES instrument using the default running and detection parameters.
HH cell lysate samples were prepared and used as above for antibody titration assays. Rabbit SP464 and mouse 17B4 antibodies were diluted to 4 µg/mL in the WES detection module Antibody Dilution Buffer 2 reagent. The antibody solutions were then diluted 1:1 (vol/vol) with varying concentrations of peptide, or diluent as a no peptide control, for 1 h at RT, and 10 µL of each antibody/peptide solution was added to the designated wells of the separation module sampling plate. Samples were run in duplicates or triplicates. Plates were then processed in the WES instrument using default running and detection parameters.

With “PAAAPGHPLA [central ten amino acid fragment within the N-terminal 15 amino acids]” the “inhibition of 17B4 binding by immunogen fragment (ACE)” value was “inhibited binding” and the “inhibition of 17B4 binding by immunogen fragment (ACE)” value (listed as center sub-domain fragment) was “complete inhibition”.
